The results in this text go back to US10040802B2, “Thienopyrazine inhibitors of IRAK4 activity” (MERCK SHARP & DOHME CORP., priority 2015, dated 2018).

SMILES strings stand for the structures. Structures can show the parent of a compound that is named as a salt.

GST tagged IRAK4, sequence (Q9NWZ3 whole entry): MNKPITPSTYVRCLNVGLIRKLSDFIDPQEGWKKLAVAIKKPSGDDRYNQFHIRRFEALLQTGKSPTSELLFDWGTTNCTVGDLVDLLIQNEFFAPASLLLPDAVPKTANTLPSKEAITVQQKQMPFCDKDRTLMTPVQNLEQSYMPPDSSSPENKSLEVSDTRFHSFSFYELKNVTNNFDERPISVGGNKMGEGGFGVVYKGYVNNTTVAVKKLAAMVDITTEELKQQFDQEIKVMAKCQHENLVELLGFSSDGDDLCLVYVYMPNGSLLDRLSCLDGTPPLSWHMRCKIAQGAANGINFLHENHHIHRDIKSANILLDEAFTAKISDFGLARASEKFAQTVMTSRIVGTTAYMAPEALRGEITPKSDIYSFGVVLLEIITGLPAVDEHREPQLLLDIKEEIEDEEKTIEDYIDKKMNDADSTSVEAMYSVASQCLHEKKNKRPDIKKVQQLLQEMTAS

The assay concerns the target GST tagged IRAK4 (Homo sapiens (Human), UniProt Q9NWZ3). As to the kind of experiment: IRAK4 Kinase Assay (IMAP fluorescence polarization). It is filed as biochemical. Conditions: 0.5 nM GST tagged IRAK4, 100 μM ATP, 30 minutes at 25° C. As for the experimental part: The kinase activity of IRAK4 is determined by its ability to catalyze the phosphorylation of a fluorescent polypeptide substrate. The extent of phosphorylation is measured using the IMAP technology (Molecular Devices) where the phosphorylated fluorescent substrate binds to the large M(III)-based nanoparticles which reduces the rotational speed of the substrate and thus increases its fluorescent polarization (FP).
20 μL reaction mixture contains 10 mM TriHCl, pH 7.2, 0.5 nM GST tagged IRAK4 (SignalChem), 100 nM fluorescent peptide substrate (RP7030, Molecular Devices), 100 μM ATP, 1 mM DDT, 1 mM MgCl2, and 0.01% Tween 20. The reaction is initiated by the addition of ATP. After incubation for 30 minutes at 25° C., 60 μL of Progressive IMAP Reagent (Molecular Devices) is added to stop the reaction. Change in RP7030's FP is determined by a FP reader (Analyst HT, LJL BioSystems).
In general terms: Polarisation of emitted light reports the rotation of a fluorescent probe.
`Cn1cc(NC(=O)c2csc3ncc(NC4CCCCNC4)nc23)c(C(F)(F)F)n1` (centres unmarked) [Example 15, 2-(azepan-3-ylamino)-N-[1-methyl-3 (trifluoromethyl)-1H-pyrazol-4-yl]thieno[2,3-b] pyrazine-7-carboxamide trifluoroacetate] displayed an IC50 of 4 nM.
In the case of `Cn1cc(NC(=O)c2csc3ncc(N4CCCNCC4)nc23)c(Cl)n1` [Example 18, N-(3-chloro-1-methyl-1H-pyrazol-4-yl)-2-(1,4-diazepan-1-yl)thieno[2,3-b] pyrazine-7-carboxamide trifluoroacetate], the IC50 was found to be 14 nM.
`Cn1cc(NC(=O)c2csc3ncc(N4CCCNCC4)nc23)c(Br)n1` [Example 21, N-(3-bromo-1-methyl-1H-pyrazol-4-yl)-2-(1,4-diazepan-1-yl)thieno[2,3-b] pyrazine-7-carboxamide trifluoroacetate] came in with an IC50 of 15 nM.
`Cn1cc(NC(=O)c2csc3ncc(N4CCC[C@@H](N)C4)nc23)c(C(F)F)n1` [Example 24, 2[(3R)-3-aminopiperidin-1-yl] N-[3-(difluoromethyl)-1-methyl-1H-pyrazol-4-yl]thieno[2,3-b] pyrazine-7-carboxamide trifluoroacetate]: it took 0.2 nM to reach half-maximal inhibition (IC50). Against the preceding compound, the IC50 is about 75-fold lower.
To `Cn1cc(NC(=O)c2csc3ncc(N[C@@H]4CCCC[C@@H]4N)nc23)c(C(F)F)n1` [Example 25, 2-{[(1R,2S)-2-aminocyclohexyl]amino}-N-[3-(difluoromethyl)-1-methyl-1H-pyrazol-4-yl]thieno[2,3-b] pyrazine-7-carboxamide trifluoroacetate] belongs 0.2 nM.
To `Cn1cc(NC(=O)c2csc3ncc(N4CCCNCC4)nc23)c(C#N)n1` [Example 28, N-(3-cyano-1-methyl-1H-pyrazol-4-yl)-2-(1,4-diazepan-1-yl)thieno[2,3-b] pyrazine-7-carboxamide trifluoroacetate] belongs 26 nM; to `Cn1cc(NC(=O)c2csc3ncc(N[C@@H]4CCCC(F)(F)[C@@H]4N)nc23)c(Br)n1` [Example 29, 2-{[(1R,2R)-2-amino-3,3-difluorocyclohexyl]amino}-N-(3-(bromo-1-methyl-1H-pyrazol-4-yl)thieno[2,3-b]pyrazine-7-carboxamide trifluoroacetate], 107 nM.
Compound `Cn1cc(NC(=O)c2csc3ncc(N[C@@H]4CCCC[C@@H]4N)nc23)c(Br)n1` [Example 30, 2-{[(1R,2S)-2-aminocyclohexyl]amino}-N-(3-bromo-1-methyl-1H-pyrazol-4-yl)thieno[2,3-b] pyrazine-7-carboxamide trifluoroacetate] gave a half-inhibitory concentration (IC50) of 0.6 nM.
`Cn1cc(NC(=O)c2csc3ncc(N[C@@H]4CCCNC4)nc23)c(C(F)F)n1` [Example 32, N-[3-(difluoromethyl)-1-methyl-1H-pyrazol-4-yl]-2-[(3R)-piperidin-3-ylamino]thieno [2,3-b]pyrazine-7-carboxamide] gave an IC50 of 0.4 nM.
As for `Cn1cc(NC(=O)c2csc3ncc(N[C@@H]4CCCC[C@@H]4N)nc23)c(Cl)n1` [Example 35, 2-{[(1R,2S)-2-aminocyclohexyl]amino}-N-(3-chloro-1-methyl-1H-pyrazol-4-yl)thieno[2,3-b] pyrazine-7-carboxamide trifluoroacetate], the IC50 came out at 0.3 nM.
To `Cn1cc(NC(=O)c2csc3ncc(N[C@@H]4CCCC(F)(F)[C@@H]4N)nc23)c(C#N)n1` [Example 36, 2-{[(1R,2R)-2-amino-3,3-difluorocyclohexyl]amino}-N-(3-cyano-1-methyl-1H-pyrazol-4-yl]thieno[2,3-b] pyrazine-7-carboxamide trifluoroacetate] belongs 50 nM; to `Cn1cc(NC(=O)c2csc3ncc(N[C@@H]4CCCC[C@@H]4N)nc23)c(C#N)n1` [Example 37, 2-{[(1R,2S)-2-aminocyclohexyl]amino}-N-(3-cyano-1-methyl-1H-pyrazol-4-yl)thieno[2,3-b] pyrazine-7-carboxamide trifluoroacetate], 0.4 nM; to `Cn1cc(NC(=O)c2csc3ncc(N[C@@H]4CCCC(F)(F)[C@@H]4N)nc23)c(C(F)F)n1` [Example 39, 2-{[(1R,2R)-2-amino-3,3-difluorocyclohexyl]amino}-N-[3-(difluoromethyl)-1-methyl-1H-pyrazol-4-yl]thieno[2,3-b] pyrazine-7-carboxamide], 32 nM.
To `Cn1cc(NC(=O)c2csc3ncc(N4CC5CCC(C4)N5)nc23)c(C(F)F)n1` [Example 40, 2-(3,8-diazabicyclo[3.2.1]oct-3-yl)-N-[3-(difluoromethyl)-1-methyl-1H-pyrazol-4-yl]thieno[2,3-b] pyrazine-7-carboxamide trifluoroacetate] belongs 0.6 nM.
In the case of `Cn1cc(NC(=O)c2csc3ncc(N4CC5CCC(C4)N5)nc23)c(C(F)(F)F)n1` [Example 41, 2-(3,8-diazabicyclo[3.2.1]oct-3-yl)-N-[1-methyl-3-(trifluoromethyl)-1H-pyrazol-4-yl]thieno[2,3-b] pyrazine-7-carboxamide trifluoroacetate], half-maximal inhibition (IC50) was put at 18 nM. Against the preceding compound, the IC50 is about 30-fold higher.
To `Cn1cc(NC(=O)c2csc3ncc(N[C@@H]4CCCC(F)(F)[C@@H]4N)nc23)c(Cl)n1` [Example 43, 2-{[(1R,2R)-2-amino-3,3-difluorocyclohexyl]amino}-N-(3-chloro-1-methyl-1H-pyrazol-4-yl)thieno[2,3-b] pyrazine-7-carboxamide trifluoroacetate] belongs 64 nM.
Take `Cn1cc(NC(=O)c2csc3ncc(N4C5CCC4CNC5)nc23)c(C(F)F)n1` [Example 44, 2-(3,8-diazabicyclo[3.2.1]oct-8-yl)-N-[3-(difluoromethyl)-1-methyl-1H-pyrazol-4-yl]thieno[2,3-b] pyrazine-7-carboxamide trifluoroacetate]: the IC50 turned out to be 0.5 nM.
`Cn1cc(NC(=O)c2csc3ncc(N4C5CCC4CNC5)nc23)c(C(F)(F)F)n1` [Example 45, 2-(3,8-diazabicyclo[3.2.1]oct-8-yl)-N-[1-methyl-3-(trifluoromethyl)-1H-pyrazol-4-yl]thieno[2,3-b] pyrazine-7-carboxamide trifluoroacetate] showed a half-inhibitory concentration (IC50) of 2 nM. Against the preceding compound, the IC50 is about 4-fold higher.
To `O=C(Nc1cscc1C(F)F)c1csc2ncc(N3CCCNCC3)nc12` [Example 47, 2-(1,4-diazepan-1-yl)-N-[4-(difluoromethyl)thiophen-3-yl] thieno[2,3-b] pyrazine-7-carboxamide trifluoroacetate] belongs 38 nM.
To `O=C(Nc1cscc1Br)c1csc2ncc(N3CCCNCC3)nc12` [Example 48, N-(4-bromothiophen-3-yl)-2-(1,4-diazepan-1-yl)thieno[2,3-b] pyrazine-7-carboxamide trifluoroacetate] belongs 346 nM.
To `N[C@H]1CCCC[C@H]1Nc1cnc2scc(C(=O)Nc3cscc3C(F)F)c2n1` [Example 50, 2-{[(1R,2S)-2-aminocyclohexyl]amino}-N-(4-(difluoromethyl)thiophen-3-yl] thieno[2,3-b] pyrazine-7-carboxamide trifluoroacetate] belongs 0.7 nM; to `O=C(Nc1ccsc1Br)c1csc2ncc(N3CCCNCC3)nc12` [Example 51, N-(2-bromothiophen-3-yl)-2-(1,4-diazepan-1-yl)thieno[2,3-b] pyrazine-7-carboxamide trifluoroacetate], 1160 nM; to `O=C(Nc1ccsc1Cl)c1csc2ncc(N3CCCNCC3)nc12` [Example 52, N-(2-chlorothiophen-3-yl)-2-(1,4-diazepan-1-yl)thieno[2,3-b] pyrazine-7-carboxamide trifluoroacetate], 585 nM.
In turn, `N[C@H]1CCCC[C@H]1Nc1cnc2scc(C(=O)Nc3cscc3Br)c2n1` [Example 53, 2-{[(1R,2S)-2-amino-cyclohexyl]amino}-N-(4-bromothiophen-3-yl)thieno[2,3-b] pyrazine-7-carboxamide trifluoroacetate] yielded an IC50 of 0.6 nM.
To `N[C@H]1CCCC[C@H]1Nc1cnc2scc(C(=O)Nc3ccsc3Br)c2n1` [Example 54, 2-{[(1R,2S)-2-amino-cyclohexyl]amino}-N-(2-bromothiophen-3-yl)thieno[2,3-b] pyrazine-7-carboxamide trifluoroacetate] belongs 1 nM.
To `N#Cc1cscc1NC(=O)c1csc2ncc(N3CCCNCC3)nc12` [Example 55, N-(4-cyanothiophen-3-yl)-2-(1,4-diazepan-1-yl)thieno[2,3-b] pyrazine-7-carboxamide trifluoroacetate] belongs 189 nM; to `N[C@H]1CCCC[C@H]1Nc1cnc2scc(C(=O)Nc3ccsc3Cl)c2n1` [Example 56, 2-{[(1R,2S)-2-amino-cyclohexyl]amino}-N-(2-chlorothiophen-3-yl)thieno[2,3-b] pyrazine-7-carboxamide trifluoroacetate], 0.6 nM.
Regarding `N#Cc1cscc1NC(=O)c1csc2ncc(N[C@@H]3CCCC[C@@H]3N)nc12` [Example 57, 2-{[(1R,2S)-2-amino-cyclohexyl]amino}-N-(4-cyanothiophen-3-yl)thieno[2,3-b] pyrazine-7-carboxamide trifluoroacetate], the IC50 was 0.5 nM.
As to `N[C@@H]1[C@H](Nc2cnc3scc(C(=O)Nc4ccsc4Cl)c3n2)CCCC1(F)F` [Example 60, 2-{[(1R,2R)-2-amino-3,3-difluorocyclohexyl]amino}-N-(2-chloro-thiophen-3-yl) thieno[2,3-b] pyrazine-7-carboxamide trifluoroacetate], 1410 nM corresponded to half-maximal inhibition (IC50). This IC50 lies about 2800-fold higher than the previous one.

The IC50 is the concentration needed to halve the response being measured. Read a high IC50 as a need for much substance.
